Measurements as given in US8299048B2, “Hexahydrocyclopentyl[f]indazole sulfonamides and derivatives thereof as selective glucocorticoid receptor modulators” (Merck Sharp & Dohme Corp., priority 2008, dated 2012).
Read-outs that look alike come from different tables or passages of the source.

Target: T1, human GR (Homo sapiens, UniProt P04150)
T1 sequence (P04150 1-777): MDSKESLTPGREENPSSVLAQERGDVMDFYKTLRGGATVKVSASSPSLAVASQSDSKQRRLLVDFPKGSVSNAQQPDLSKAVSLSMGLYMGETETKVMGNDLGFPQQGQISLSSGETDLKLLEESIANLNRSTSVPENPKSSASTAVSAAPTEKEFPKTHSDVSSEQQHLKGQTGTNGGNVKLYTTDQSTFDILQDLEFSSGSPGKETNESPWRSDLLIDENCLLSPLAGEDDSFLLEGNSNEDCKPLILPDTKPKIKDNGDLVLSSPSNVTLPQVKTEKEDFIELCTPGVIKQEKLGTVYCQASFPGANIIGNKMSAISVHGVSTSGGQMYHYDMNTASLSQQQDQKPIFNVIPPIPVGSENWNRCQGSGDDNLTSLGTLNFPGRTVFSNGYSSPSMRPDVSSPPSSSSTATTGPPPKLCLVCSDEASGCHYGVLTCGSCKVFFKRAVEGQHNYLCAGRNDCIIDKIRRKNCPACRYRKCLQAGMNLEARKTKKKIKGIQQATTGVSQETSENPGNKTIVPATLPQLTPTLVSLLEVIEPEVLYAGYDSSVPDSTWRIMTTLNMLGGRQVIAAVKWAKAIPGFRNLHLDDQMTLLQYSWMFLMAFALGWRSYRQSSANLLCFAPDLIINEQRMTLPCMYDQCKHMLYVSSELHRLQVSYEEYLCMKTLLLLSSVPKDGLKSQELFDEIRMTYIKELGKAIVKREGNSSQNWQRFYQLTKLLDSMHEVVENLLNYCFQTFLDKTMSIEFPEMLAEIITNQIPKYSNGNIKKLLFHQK
Assay: Transrepression Assay (GITAR), TNFα-β-lactamase reporter in U937 cells
Type: cell-based
Set-up: U937 cells contain an endogenous glucocorticoid receptor (GR); endogenous in cells; host or cells: U937 cells stably transfected with the TNF-alpha promoter/beta-lactamase reporter
Conditions: for GITAR > GRAMM % SEP: GITAR Emax minus GRAMMER Emax; for EC50: U937 cells, inflection point, read-out: Transrepression U937 Cells GITAR IP
Method in brief: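 U937 cells with endogenous GR, stably carrying TNFα promoter–β-lactamase, preincubated with compound 30–45 min at 37° C, then stimulated with PMA 5 ng/ml and LPS 100 ng/ml (final) ~18 hr. Read-out via CCF2-AM loading; repression by 100 nM dexamethasone set as 100%.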

[1] = U-937, U937 cells, maximum activity, read-out: Transrepression U937 Cells GITAR Emax
[2] = U-937, activity repressed by 100 nM dexamethasone alone set as 100%, read-out: maximal activity in the transrepression (GITAR) assay

| GITAR > GRAMM % SEP | EC50 | Emax [1] | Emax [2] | Structure (SMILES) |
| --- | --- | --- | --- | --- |
| 15.9% | 883 nM | 66.5% | > 5% | C[C@]12Cc3cnn(-c4ccc(F)cc4)c3C=C1CC[C@@H]2CN(CCO)S(=O)(=O)c1ccccc1C#N [Example 78, 2-cyano-N-{[(4αR,5S)-1-(4-fluorophenyl)-4α-methyl-1,4,4α,5,6,7-hexahydrocyclopenta[f]indazol-5-yl]methyl}-N-(2-hydroxyethyl)benzenesulfonamide] |
| 64.3% | 1950 nM | 71.8% | > 5% | C[C@]12Cc3cnn(-c4ccc(F)cc4)c3C=C1CC[C@@H]2CN(CCO)S(=O)(=O)c1ccc(Oc2ccccc2)cc1 [Example 79, N-{[(4αR,5S)-1-(4-fluorophenyl)-4α-methyl-1,4,4α,5,6,7-hexahydrocyclopenta[f]indazol-5-yl]methyl}-N-(2-hydroxyethyl)-4-phenoxybenzenesulfonamide] |
| 64.0% | 2580 nM | 70% | > 5% | C[C@]12Cc3cnn(-c4ccc(F)cc4)c3C=C1CC[C@@H]2CN(CCO)S(=O)(=O)c1cc(C(F)(F)F)ccc1Cl [Example 80, 2-chloro-N-{[(4αR,5S)-1-(4-fluorophenyl)-4α-methyl-1,4,4α,5,6,7-hexahydrocyclopenta[f]indazol-5-yl]methyl}-N-(2-hydroxyethyl)-5-(trifluoromethyl)benzenesulfonamide] |
| 59.5% | 959 nM | 76.7% | > 5% | C[C@]12Cc3cnn(-c4ccc(F)cc4)c3C=C1CC[C@@H]2CN(CCO)S(=O)(=O)c1ccccc1Cl [Example 81, 2-chloro-N-{[(4αR,5S)-1-(4-fluorophenyl)-4α-methyl-1,4,4α,5,6,7-hexahydrocyclopenta[f]indazol-5-yl]methyl}-N-(2-hydroxyethyl)benzenesulfonamide] |
| 29.1% | 220 nM | 90.2% | > 5% | C[C@]12Cc3cnn(-c4ccc(F)cc4)c3C=C1CC[C@@H]2CN(CCO)S(=O)(=O)c1ccc(F)cc1F [Example 82, 2,4-difluoro-N-{[(4αR,5S)-1-(4-fluorophenyl)-4α-methyl-1,4,4α,5,6,7-hexahydrocyclopenta[f]indazol-5-yl]methyl}-N-(2-hydroxyethyl)benzenesulfonamide] |
| 52.6% | 1320 nM | 59.5% | > 5% | Cc1nn(C)c(Cl)c1S(=O)(=O)N(CCO)C[C@H]1CCC2=Cc3c(cnn3-c3ccc(F)cc3)C[C@@]21C [Example 83, 5-chloro-N-{[(4αR,5S)-1-(4-fluorophenyl)-4α-methyl-1,4,4α,5,6,7-hexahydrocyclopenta[f]indazol-5-yl]methyl}-N-(2-hydroxyethyl)-1,3-dimethyl-1H-pyrazole-4-sulfonamide] |
| 66.3% | 799 nM | 86% | > 5% | C[C@]12Cc3cnn(-c4ccc(F)cc4)c3C=C1CC[C@@H]2CN(CCO)S(=O)(=O)c1ccccc1-c1ccccc1 [Example 84, N-{[(4αR,5S)-1-(4-fluorophenyl)-4α-methyl-1,4,4α,5,6,7-hexahydrocyclopenta[f]indazol-5-yl]methyl}-N-(2-hydroxyethyl)biphenyl-2-sulfonamide] |

Continued, compound first:

| Structure (SMILES) | GITAR > GRAMM % SEP | EC50 | Emax [1] | Emax [2] |
| --- | --- | --- | --- | --- |
| Cn1nc(C(F)(F)F)cc1-c1ccc(S(=O)(=O)N(CCO)C[C@H]2CCC3=Cc4c(cnn4-c4ccc(F)cc4)C[C@@]32C)s1 [Example 67, N-{[(4αR,5S)-1-(4-fluorophenyl)-4α-methyl-1,4,4α,5,6,7-hexahydrocyclopenta[f]indazol-5-yl]methyl}-N-(2-hydroxyethyl)-5-[1-methyl-3-(trifluoromethyl)-1H-pyrazole-5-yl]thiophene-2-sulfonamide] | 22.8% | 2060 nM | 29.3% | > 5% |
| C[C@]12Cc3cnn(-c4ccc(F)cc4)c3C=C1CC[C@@H]2CN(CCO)S(=O)(=O)c1cccc(C#N)c1 [Example 68, 3-cyano-N-{[(4αR,5S)-1-(4-fluorophenyl)-4α-methyl-1,4,4α,5,6,7-hexahydrocyclopenta[f]indazol-5-yl]methyl}-N-(2-hydroxyethyl)benezenesulfonamide] | 22.9% | 757 nM | 32.9% | > 5% |
| C[C@]12Cc3cnn(-c4ccc(F)cc4)c3C=C1CC[C@@H]2CN(CCO)S(=O)(=O)c1ccc(Oc2cccc(Cl)c2C#N)cc1 [Example 69, 4-(3-chloro-2-cyanophenoxy)-N-{[(4αR,5S)-1-(4-fluorophenyl)-4α-methyl-1,4,4α,5,6,7-hexahydrocyclopenta[f]indazol-5-yl]methyl}-N-(2-hydroxyethyl)benzenesulfonamide] | 22.2% | 2540 nM | 34.8% | > 5% |
| C[C@]12Cc3cnn(-c4ccc(F)cc4)c3C=C1CC[C@@H]2CN(CCO)S(=O)(=O)c1ccccc1C(F)(F)F [Example 70, N-{[(4αR,5S)-1-(4-fluorophenyl)-4α-methyl-1,4,4α,5,6,7-hexahydrocyclopenta[f]indazol-5-yl]methyl}-N-(2-hydroxyethyl)-2-(trifluoromethyl)benzenesulfonamide] | 15.1% | 1010 nM | 40.8% | > 5% |
| Cc1noc(C)c1S(=O)(=O)N(CCO)C[C@H]1CCC2=Cc3c(cnn3-c3ccc(F)cc3)C[C@@]21C [Example 71, N-{[(4αR,5S)-1-(4-fluorophenyl)-4α-methyl-1,4,4α,5,6,7-hexahydrocyclopenta[f]indazol-5-yl]methyl}-N-(2-hydroxyethyl)-3,5-dimethylisoxazole-4-sulfonamide] | 19.2% | 302 nM | 82.3% | > 5% |
| C[C@]12Cc3cnn(-c4ccc(F)cc4)c3C=C1CC[C@@H]2CN(CCO)S(=O)(=O)c1cc(F)cc(F)c1 [Example 72] | 25.5% | 486 nM | 60.8% | > 5% |
| COC(=O)c1ccccc1S(=O)(=O)N(CCO)C[C@H]1CCC2=Cc3c(cnn3-c3ccc(F)cc3)C[C@@]21C [Example 73, methyl 2-{[{[(4αR,5S)-1-(4-fluorophenyl)-4α-methyl-1,4,4α,5,6,7-hexahydrocyclopenta[f]indazol-5-yl]methyl}(2-hydroxyethyl)amino]sulfonyl}benzoate] | 56.0% | 363 nM | 81.4% | > 5% |
| C[C@]12Cc3cnn(-c4ccc(F)cc4)c3C=C1CC[C@@H]2CN(CCO)S(=O)(=O)c1ccc(Oc2ccccn2)cc1 [Example 74, N-{[(4αR,5S)-1-(4-fluorophenyl)-4α-methyl-1,4,4α,5,6,7-hexahydrocyclopenta[f]indazol-5-yl]methyl}-N-(2-hydroxyethyl)-4-(pyridin-2-yloxy)benzenesulfonamide] | 9.9% | 1140 nM | 44.1% | > 5% |
| C[C@]12Cc3cnn(-c4ccc(F)cc4)c3C=C1CC[C@@H]2CN(CCO)S(=O)(=O)Cc1ccccc1 [Example 75, N-{[(4αR,5S)-1-(4-fluorophenyl)-4α-methyl-1,4,4α,5,6,7-hexahydrocyclopenta[f]indazol-5-yl]methyl}-N-(2-hydroxyethyl)-1-phenylmethanesulfonamide] | 14.4% | 473 nM | 28.8% | > 5% |
| CNC(=O)Nc1ccc(S(=O)(=O)N(CCO)C[C@H]2CCC3=Cc4c(cnn4-c4ccc(F)cc4)C[C@@]32C)c(Cl)c1 [Example 76, 2-chloro-N-{[(4αR,5S)-1-(4-fluorophenyl)-4α-methyl-1,4,4α,5,6,7-hexahydrocyclopenta[f]indazol-5-yl]methyl}-N-(2-hydroxyethyl)-4-{[(methylamino)carbonyl]amino}-benzenesulfonamide] | 9.5% | 2110 nM | 13% | > 5% |
| Cc1ccccc1S(=O)(=O)N(CCO)C[C@H]1CCC2=Cc3c(cnn3-c3ccc(F)cc3)C[C@@]21C [Example 77, N-{[(4αR,5S)-1-(4-fluorophenyl)-4α-methyl-1,4,4α,5,6,7-hexahydrocyclopenta[f]indazol-5-yl]methyl}-N-(2-hydroxyethyl)-2-methylbenzenesulfonamide] | 25.7% | 1130 nM | 43.6% | > 5% |
